Measured values published in ChEMBL document CHEMBL3228036, “A new chemical series active against African trypanosomes: benzyltriphenylphosphonium salts” (J Med Chem, 1979).
The source made the active and inactive calls. The rule behind the calls is not given here.

Each compound was assayed on Trypanosoma brucei rhodesiense (assay: […] activity against Trypanosoma brucei rhodesiense Wellcome CT infected in ICR/HA mouse assessed as curated mouse at 424 mg/kg, sc treated within 2 hrs of parasite infection measured up to 30 days). Conditions: not given.
Format: functional, organism-based
Parameters: dose 424 mg/kg
With `Cc1cccc([P+](Cc2ccccc2)(c2cccc(C)c2)c2cccc(C)c2)c1.[Cl-]` the Activity was “inactive”.
For `[I-].c1ccc(CC(c2ccccc2)[P+](c2ccccc2)(c2ccccc2)c2ccccc2)cc1` (stereo unspecified), the Activity was “inactive”.
In the case of `C=CC[P+](c1ccccc1)(c1ccccc1)c1ccccc1.[Br-]`, the Activity is reported as “inactive”.
With `CCCCCCCCCCCC[P+](c1ccccc1)(c1ccccc1)c1ccccc1` the Activity was “inactive”.
For `Cc1ccccc1C[P+](c1ccccc1)(c1ccccc1)c1ccccc1`, the Activity was “inactive”.
In the case of `[Br-].c1ccc([P+](Cc2cccc3cccnc23)(c2ccccc2)c2ccccc2)cc1`, the Activity is reported as “inactive”.

The compounds below were run on Trypanosoma brucei rhodesiense (assay: […] activity against Trypanosoma brucei rhodesiense Wellcome CT infected in ICR/HA mouse assessed as curated mouse at 424 mg/kg, po treated within 2 hrs of parasite infection measured up to 30 days). Conditions: not given.
Format: functional, organism-based
Parameters: dose 424 mg/kg
With `[I-].c1ccc(CC(c2ccccc2)[P+](c2ccccc2)(c2ccccc2)c2ccccc2)cc1` (stereo unspecified) the Activity was “inactive”.
`C=CC[P+](c1ccccc1)(c1ccccc1)c1ccccc1.[Br-]` was tested, and the Activity was “inactive”.
With `CCCCCCCCCCCC[P+](c1ccccc1)(c1ccccc1)c1ccccc1` the Activity was “inactive”.
With `Cc1ccccc1C[P+](c1ccccc1)(c1ccccc1)c1ccccc1` the Activity was “inactive”.

Each compound was assayed on Mus musculus (assay: Toxicity in Trypanosoma brucei rhodesiense Wellcome CT infected ICR/HA mouse assessed as mortality at 424 mg/kg, po treated within 2 hrs of parasite infection measured up to 30 days). Conditions: in vivo.
Format: organism-based
Parameters: dose 424 mg/kg, route oral
In the case of `Cc1ccc(C[P+](c2ccccc2)(c2ccccc2)c2ccccc2)cc1.[Br-]`, the Activity is reported as “Toxic”.
With `Cc1ccccc1C[P+](c1ccccc1)(c1ccccc1)c1ccccc1.[Br-]` the Activity was “Toxic”.

Each compound was assayed on Trypanosoma brucei rhodesiense (assay: […] activity against Trypanosoma brucei rhodesiense Wellcome CT infected in ICR/HA mouse assessed as curated mouse at 212 mg/kg, sc treated within 2 hrs of parasite infection measured up to 30 days). Conditions: not given.
Format: functional, organism-based
Parameters: dose 212 mg/kg
With `CCCCCCCCCCCC[P+](c1ccccc1)(c1ccccc1)c1ccccc1` the Activity was “inactive”.
For `Cc1ccccc1C[P+](c1ccccc1)(c1ccccc1)c1ccccc1`, the Activity was “inactive”.

Each compound was assayed on Trypanosoma brucei rhodesiense (assay: […] activity against Trypanosoma brucei rhodesiense Wellcome CT infected in ICR/HA mouse assessed as curated mouse at 212 mg/kg, po treated within 2 hrs of parasite infection measured up to 30 days). Conditions: not given.
Format: functional, organism-based
Parameters: dose 212 mg/kg
`Cc1ccccc1C[P+](c1ccccc1)(c1ccccc1)c1ccccc1` was tested, and the Activity was “inactive”.

What follows are compounds tested on Mus musculus (assay: Toxicity in Trypanosoma brucei rhodesiense Wellcome CT infected ICR/HA mouse assessed as mortality at 212 mg/kg, po treated within 2 hrs of parasite infection measured up to 30 days). Conditions: in vivo.
Format: organism-based
Parameters: dose 212 mg/kg, route oral
In the case of `Cc1ccc(C[P+](c2ccccc2)(c2ccccc2)c2ccccc2)cc1.[Br-]`, the Activity is reported as “Toxic”.

What follows are compounds tested on Trypanosoma brucei rhodesiense (assay: […] activity against Trypanosoma brucei rhodesiense Wellcome CT infected in ICR/HA mouse assessed as curated mouse at 106 mg/kg, sc treated within 2 hrs of parasite infection measured up to 30 days). Conditions: not given.
Format: functional, organism-based
Parameters: dose 106 mg/kg
With `Cc1cccc([P+](Cc2ccccc2)(c2cccc(C)c2)c2cccc(C)c2)c1.[Cl-]` the Activity was “inactive”.
With `[I-].c1ccc(CC(c2ccccc2)[P+](c2ccccc2)(c2ccccc2)c2ccccc2)cc1` (stereo unspecified) the Activity was “inactive”.
For `CCCCCCCCCCCC[P+](c1ccccc1)(c1ccccc1)c1ccccc1`, the Activity was “inactive”.
In the case of `Cc1ccccc1C[P+](c1ccccc1)(c1ccccc1)c1ccccc1`, the Activity is reported as “inactive”.

What follows are compounds tested on Trypanosoma brucei rhodesiense (assay: […] activity against Trypanosoma brucei rhodesiense Wellcome CT infected in ICR/HA mouse assessed as curated mouse at 106 mg/kg, po treated within 2 hrs of parasite infection measured up to 30 days). Conditions: not given.
Format: functional, organism-based
Parameters: dose 106 mg/kg
`Cc1cccc([P+](Cc2ccccc2)(c2cccc(C)c2)c2cccc(C)c2)c1.[Cl-]` was tested, and the Activity was “inactive”.
With `Cc1ccccc1C[P+](c1ccccc1)(c1ccccc1)c1ccccc1` the Activity was “inactive”.

These compounds were tested on Trypanosoma brucei rhodesiense (assay: […] activity against Trypanosoma brucei rhodesiense Wellcome CT infected in ICR/HA mouse assessed as curated mouse at 53 mg/kg, sc treated within 2 hrs of parasite infection measured up to 30 days). Conditions: not given.
Format: functional, organism-based
Parameters: dose 53 mg/kg
`Cc1ccccc1C[P+](c1ccccc1)(c1ccccc1)c1ccccc1` was tested, and the Activity was “inactive”.
For `[Br-].c1ccc([P+](Cc2cccc3cccnc23)(c2ccccc2)c2ccccc2)cc1`, the Activity was “inactive”.

These compounds were tested on Trypanosoma brucei rhodesiense (assay: […] activity against Trypanosoma brucei rhodesiense Wellcome CT infected in ICR/HA mouse assessed as curated mouse at 53 mg/kg, po treated within 2 hrs of parasite infection measured up to 30 days). Conditions: not given.
Format: functional, organism-based
Parameters: dose 53 mg/kg
`Cc1cccc([P+](Cc2ccccc2)(c2cccc(C)c2)c2cccc(C)c2)c1.[Cl-]` was tested, and the Activity was “inactive”.
For `Cc1ccccc1C[P+](c1ccccc1)(c1ccccc1)c1ccccc1`, the Activity was “inactive”.

What follows are compounds tested on Trypanosoma brucei rhodesiense (assay: […] activity against Trypanosoma brucei rhodesiense Wellcome CT infected in ICR/HA mouse assessed as curated mouse at 26.5 mg/kg, sc treated within 2 hrs of parasite infection measured up to 30 days). Conditions: not given.
Format: functional
With `[I-].c1ccc(CC(c2ccccc2)[P+](c2ccccc2)(c2ccccc2)c2ccccc2)cc1` (stereo unspecified) the Activity was “inactive”.
In the case of `C=CC[P+](c1ccccc1)(c1ccccc1)c1ccccc1.[Br-]`, the Activity is reported as “inactive”.
With `CCCCCCCCCCCC[P+](c1ccccc1)(c1ccccc1)c1ccccc1` the Activity was “inactive”.
With `Cc1ccccc1C[P+](c1ccccc1)(c1ccccc1)c1ccccc1` the Activity was “inactive”.
For `COC(=O)c1ccccc1C[P+](c1ccccc1)(c1ccccc1)c1ccccc1`, the Activity was “inactive”.
For `[Br-].c1ccc([P+](Cc2cccc3cccnc23)(c2ccccc2)c2ccccc2)cc1`, the Activity was “inactive”.

Same assay, conditions: route subcutaneous
Work on `N=C(N)c1ccc(/C=C/c2ccc(C(=N)N)cc2O)cc1` [HYDROXYSTILBAMIDINE] yielded an Activity of 71%.
`Cc1ccc(C[P+](c2ccccc2)(c2ccccc2)c2ccccc2)cc1.[Cl-]` showed an Activity of 20%.
With `Cc1ccccc1C[P+](c1ccccc1)(c1ccccc1)c1ccccc1.[Cl-]` the Activity was 40%.

Each compound was assayed on Trypanosoma brucei rhodesiense (assay: […] activity against Trypanosoma brucei rhodesiense Wellcome CT infected in ICR/HA mouse assessed as curated mouse at 26.5 mg/kg, po treated within 2 hrs of parasite infection measured up to 30 days). Conditions: not given.
Format: functional, organism-based
Parameters: dose 26.5 mg/kg
With `Cc1cccc([P+](Cc2ccccc2)(c2cccc(C)c2)c2cccc(C)c2)c1.[Cl-]` the Activity was “inactive”.
For `Cc1ccccc1C[P+](c1ccccc1)(c1ccccc1)c1ccccc1`, the Activity was “inactive”.

These compounds were tested on Trypanosoma brucei rhodesiense (assay: […] activity against Trypanosoma brucei rhodesiense Wellcome CT infected in ICR/HA mouse assessed as curated mouse at 13.3 mg/kg, sc treated within 2 hrs of parasite infection measured up to 30 days). Conditions: not given.
Format: functional, organism-based
Parameters: dose 13.3 mg/kg
With `Cc1cccc([P+](Cc2ccccc2)(c2cccc(C)c2)c2cccc(C)c2)c1.[Cl-]` the Activity was “inactive”.
With `[I-].c1ccc(CC(c2ccccc2)[P+](c2ccccc2)(c2ccccc2)c2ccccc2)cc1` (stereo unspecified) the Activity was “inactive”.
In the case of `C=CC[P+](c1ccccc1)(c1ccccc1)c1ccccc1.[Br-]`, the Activity is reported as “inactive”.
With `Cc1ccccc1C[P+](c1ccccc1)(c1ccccc1)c1ccccc1` the Activity was “inactive”.
`COC(=O)c1ccccc1C[P+](c1ccccc1)(c1ccccc1)c1ccccc1` was tested, and the Activity was “inactive”.
`[Br-].c1ccc([P+](Cc2cccc3cccnc23)(c2ccccc2)c2ccccc2)cc1` was tested, and the Activity was “inactive”.

Each compound was assayed on Trypanosoma brucei rhodesiense (assay: […] activity against Trypanosoma brucei rhodesiense Wellcome CT infected in ICR/HA mouse assessed as curated mouse at 13.3 mg/kg, po treated within 2 hrs of parasite infection measured up to 30 days). Conditions: not given.
Format: functional, organism-based
Parameters: dose 13.3 mg/kg
For `Cc1cccc([P+](Cc2ccccc2)(c2cccc(C)c2)c2cccc(C)c2)c1.[Cl-]`, the Activity was “inactive”.
In the case of `Cc1ccccc1C[P+](c1ccccc1)(c1ccccc1)c1ccccc1`, the Activity is reported as “inactive”.

Each compound was assayed on Mus musculus (assay: Toxicity in Trypanosoma brucei rhodesiense Wellcome CT infected ICR/HA mouse assessed as mortality at 424 mg/kg, sc treated within 2 hrs of parasite infection measured up to 30 days). Conditions: in vivo.
Format: organism-based
Parameters: dose 424 mg/kg, route subcutaneous
`Cc1ccc(C[P+](c2ccccc2)(c2ccccc2)c2ccccc2)cc1.[Br-]` was tested, and the Activity was “Toxic”.
For `Cc1cccc([P+](Cc2ccccc2)(c2cccc(C)c2)c2cccc(C)c2)c1.[Cl-]`, the Activity was “Toxic”.
With `[I-].c1ccc(CC(c2ccccc2)[P+](c2ccccc2)(c2ccccc2)c2ccccc2)cc1` (stereo unspecified) the Activity was “Toxic”.
In the case of `C=CC[P+](c1ccccc1)(c1ccccc1)c1ccccc1.[Br-]`, the Activity is reported as “Toxic”.
For `Cc1ccc(C[P+](c2ccccc2)(c2ccccc2)c2ccccc2)cc1.[Cl-]`, the Activity was “Toxic”.
With `Cc1ccccc1C[P+](c1ccccc1)(c1ccccc1)c1ccccc1.[Br-]` the Activity was “Toxic”.
`Cc1ccccc1C[P+](c1ccccc1)(c1ccccc1)c1ccccc1.[Cl-]` was tested, and the Activity was “Toxic”.
With `[Br-].c1ccc([P+](Cc2cccc3cccnc23)(c2ccccc2)c2ccccc2)cc1` the Activity was “Toxic”.

Each compound was assayed on Mus musculus (assay: Toxicity in Trypanosoma brucei rhodesiense Wellcome CT infected ICR/HA mouse assessed as mortality at 212 mg/kg, sc treated within 2 hrs of parasite infection measured up to 30 days). Conditions: in vivo.
Format: organism-based
Parameters: dose 212 mg/kg, route subcutaneous
`Cc1ccc(C[P+](c2ccccc2)(c2ccccc2)c2ccccc2)cc1.[Br-]` was tested, and the Activity was “Toxic”.
With `Cc1ccccc1C[P+](c1ccccc1)(c1ccccc1)c1ccccc1.[Br-]` the Activity was “Toxic”.
For `Cc1ccccc1C[P+](c1ccccc1)(c1ccccc1)c1ccccc1.[Cl-]`, the Activity was “Toxic”.
